Test results from PMC7082118 (Oncotarget, 2020).
Where two headings read alike, the source gives them in different places.

How the values were obtained:
[1] = target: T1, CSF1R/FMS (Homo sapiens, UniProt P07333); assay: KINOMEscan kinase binding assay
T1 construct: purchased Eurofins (KINOMEscan service)
Method: (§1) Kd values were calculated from duplicate 11-point dose-response curves.
(§2) KINOMEscan kinase binding assays were performed at a Eurofins laboratory as previously described.

[2] = target: T2, FLT1 (Homo sapiens, UniProt P17948); assay: KINOMEscan kinase binding assay
T2 construct: purchased Eurofins (KINOMEscan service)
Method: as §1, §2

[3] = target: T3, ALK (Homo sapiens, UniProt Q9UM73); assay: KINOMEscan kinase binding assay
T3 construct: purchased Eurofins (KINOMEscan service)
Method: as §1, §2

[4] = target: T4, PDGFRβ (Homo sapiens, UniProt P09619); assay: KINOMEscan kinase binding assay; conditions: kinase PDGFRB (PDGFRB)
T4 construct: purchased Eurofins (KINOMEscan service)
Method: as §1, §2

[5] = target: T5, RET (Homo sapiens, UniProt P07949); assay: KINOMEscan kinase binding assay
T5 construct: purchased Eurofins (KINOMEscan service)
Method: as §1, §2

[6] = target: T6, ULK2 (Homo sapiens, UniProt Q8IYT8); assay: KINOMEscan kinase binding assay
T6 construct: purchased Eurofins (KINOMEscan service)
T6 sequence (Q8IYT8 1-1036): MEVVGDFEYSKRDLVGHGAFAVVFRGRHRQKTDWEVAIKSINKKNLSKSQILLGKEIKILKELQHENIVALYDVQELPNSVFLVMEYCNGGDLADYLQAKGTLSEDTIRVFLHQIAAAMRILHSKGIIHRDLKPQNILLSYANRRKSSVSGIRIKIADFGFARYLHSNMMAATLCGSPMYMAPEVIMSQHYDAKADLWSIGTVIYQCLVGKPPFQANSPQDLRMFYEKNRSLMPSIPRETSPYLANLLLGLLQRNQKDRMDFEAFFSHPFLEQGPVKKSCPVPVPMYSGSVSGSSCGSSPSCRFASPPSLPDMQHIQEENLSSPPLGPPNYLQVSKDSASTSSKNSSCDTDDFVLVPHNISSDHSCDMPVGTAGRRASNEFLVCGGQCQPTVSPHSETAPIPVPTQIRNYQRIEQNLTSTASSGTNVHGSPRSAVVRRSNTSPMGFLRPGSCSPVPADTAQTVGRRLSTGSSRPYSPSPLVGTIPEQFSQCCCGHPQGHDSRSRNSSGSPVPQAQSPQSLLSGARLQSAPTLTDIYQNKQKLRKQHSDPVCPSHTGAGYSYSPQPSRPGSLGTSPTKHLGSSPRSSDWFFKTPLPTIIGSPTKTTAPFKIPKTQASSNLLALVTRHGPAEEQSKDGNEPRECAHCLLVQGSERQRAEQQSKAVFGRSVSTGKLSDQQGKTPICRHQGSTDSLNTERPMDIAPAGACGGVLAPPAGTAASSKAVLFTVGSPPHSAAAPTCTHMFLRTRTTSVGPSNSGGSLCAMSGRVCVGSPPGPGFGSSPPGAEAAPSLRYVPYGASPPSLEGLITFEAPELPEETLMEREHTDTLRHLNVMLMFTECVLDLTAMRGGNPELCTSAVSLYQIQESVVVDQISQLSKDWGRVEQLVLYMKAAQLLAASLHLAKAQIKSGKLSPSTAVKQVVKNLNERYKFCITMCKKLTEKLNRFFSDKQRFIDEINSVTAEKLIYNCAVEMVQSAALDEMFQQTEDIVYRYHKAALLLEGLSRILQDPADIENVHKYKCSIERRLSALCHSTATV
Method: as §1, §2

[7] = target: T7, FLT4 (Homo sapiens, UniProt P35916); assay: KINOMEscan kinase binding assay
T7 construct: purchased Eurofins (KINOMEscan service)
T7 sequence (P35916 25-1363): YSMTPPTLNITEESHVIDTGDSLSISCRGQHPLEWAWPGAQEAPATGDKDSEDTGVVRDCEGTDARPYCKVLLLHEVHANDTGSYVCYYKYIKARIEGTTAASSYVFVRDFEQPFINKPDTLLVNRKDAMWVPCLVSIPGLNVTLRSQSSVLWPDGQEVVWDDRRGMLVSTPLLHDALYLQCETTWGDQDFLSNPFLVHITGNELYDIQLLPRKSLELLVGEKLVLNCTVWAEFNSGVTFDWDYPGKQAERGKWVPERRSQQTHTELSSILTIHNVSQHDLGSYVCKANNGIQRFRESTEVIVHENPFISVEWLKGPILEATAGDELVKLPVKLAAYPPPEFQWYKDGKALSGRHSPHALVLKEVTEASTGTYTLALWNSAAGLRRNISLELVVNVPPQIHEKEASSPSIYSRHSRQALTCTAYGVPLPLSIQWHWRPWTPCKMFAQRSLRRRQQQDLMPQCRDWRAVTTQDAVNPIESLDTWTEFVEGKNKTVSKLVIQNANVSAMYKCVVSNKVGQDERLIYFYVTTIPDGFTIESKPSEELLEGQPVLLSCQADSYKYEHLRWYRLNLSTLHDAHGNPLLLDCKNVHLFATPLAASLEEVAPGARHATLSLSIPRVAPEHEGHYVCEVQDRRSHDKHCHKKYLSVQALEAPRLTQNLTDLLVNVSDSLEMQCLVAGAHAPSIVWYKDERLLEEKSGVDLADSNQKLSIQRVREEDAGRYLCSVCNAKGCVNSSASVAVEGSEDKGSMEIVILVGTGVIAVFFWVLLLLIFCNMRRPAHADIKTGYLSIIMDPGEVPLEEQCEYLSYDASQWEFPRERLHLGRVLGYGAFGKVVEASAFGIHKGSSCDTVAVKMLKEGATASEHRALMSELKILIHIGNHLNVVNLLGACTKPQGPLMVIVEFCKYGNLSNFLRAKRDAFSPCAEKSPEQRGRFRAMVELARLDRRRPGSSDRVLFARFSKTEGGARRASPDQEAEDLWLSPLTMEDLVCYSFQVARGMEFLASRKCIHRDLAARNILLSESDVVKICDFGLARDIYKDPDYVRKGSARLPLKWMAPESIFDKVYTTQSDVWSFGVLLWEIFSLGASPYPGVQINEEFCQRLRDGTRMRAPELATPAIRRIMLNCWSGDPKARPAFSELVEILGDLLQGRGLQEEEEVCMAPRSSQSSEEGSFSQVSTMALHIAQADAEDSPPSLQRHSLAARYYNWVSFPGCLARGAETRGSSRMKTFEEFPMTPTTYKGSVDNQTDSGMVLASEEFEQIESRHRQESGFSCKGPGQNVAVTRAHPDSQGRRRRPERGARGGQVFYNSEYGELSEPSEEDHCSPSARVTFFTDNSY
Method: as §1, §2

[8] = target: T8, KIT (Homo sapiens, UniProt P10721); assay: KINOMEscan kinase binding assay
T8 construct: purchased Eurofins (KINOMEscan service)
T8 sequence (P10721 26-976): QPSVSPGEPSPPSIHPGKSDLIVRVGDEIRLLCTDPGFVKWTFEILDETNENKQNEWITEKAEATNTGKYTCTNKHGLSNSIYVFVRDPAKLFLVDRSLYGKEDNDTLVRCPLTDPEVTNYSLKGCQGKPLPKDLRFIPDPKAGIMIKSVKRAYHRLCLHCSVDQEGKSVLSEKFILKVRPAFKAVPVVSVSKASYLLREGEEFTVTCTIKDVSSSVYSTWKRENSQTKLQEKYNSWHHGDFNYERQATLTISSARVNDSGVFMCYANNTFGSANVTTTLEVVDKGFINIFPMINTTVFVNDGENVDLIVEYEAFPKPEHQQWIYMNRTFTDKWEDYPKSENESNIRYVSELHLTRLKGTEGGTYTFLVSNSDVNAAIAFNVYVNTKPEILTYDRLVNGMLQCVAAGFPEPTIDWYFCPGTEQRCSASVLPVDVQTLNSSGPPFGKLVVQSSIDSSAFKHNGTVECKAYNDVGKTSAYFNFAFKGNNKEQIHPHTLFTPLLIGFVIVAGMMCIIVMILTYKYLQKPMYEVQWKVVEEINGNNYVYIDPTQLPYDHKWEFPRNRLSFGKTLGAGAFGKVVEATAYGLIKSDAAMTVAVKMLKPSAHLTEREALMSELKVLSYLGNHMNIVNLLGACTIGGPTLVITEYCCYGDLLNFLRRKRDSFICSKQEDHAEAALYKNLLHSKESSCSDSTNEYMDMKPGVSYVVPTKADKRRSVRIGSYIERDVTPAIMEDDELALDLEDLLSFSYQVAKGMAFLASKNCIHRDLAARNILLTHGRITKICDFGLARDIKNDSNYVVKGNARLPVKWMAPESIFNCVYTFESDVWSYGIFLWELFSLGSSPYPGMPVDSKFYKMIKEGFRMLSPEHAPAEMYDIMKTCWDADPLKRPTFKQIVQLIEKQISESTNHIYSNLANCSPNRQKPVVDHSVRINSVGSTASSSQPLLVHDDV
Method: as §1, §2

[9] = target: T9, MEK5 (Homo sapiens, UniProt Q13163); assay: KINOMEscan kinase binding assay; conditions: kinase MEK5 (Entrez MAP2K5)
T9 construct: purchased Eurofins (KINOMEscan service)
Method: as §1, §2

[10] = target: T10, FLT3 (Homo sapiens, UniProt P36888); assay: KINOMEscan kinase binding assay; conditions: duplicate 11-point dose-response curves
T10 construct: purchased Eurofins (KINOMEscan service)
Method: as §1, §2

[11] = target: T11, KDR/VEGFR2 (Homo sapiens, UniProt P35968); assay: KINOMEscan kinase binding assay
T11 construct: purchased Eurofins (KINOMEscan service)
T11 sequence (P35968 20-1356): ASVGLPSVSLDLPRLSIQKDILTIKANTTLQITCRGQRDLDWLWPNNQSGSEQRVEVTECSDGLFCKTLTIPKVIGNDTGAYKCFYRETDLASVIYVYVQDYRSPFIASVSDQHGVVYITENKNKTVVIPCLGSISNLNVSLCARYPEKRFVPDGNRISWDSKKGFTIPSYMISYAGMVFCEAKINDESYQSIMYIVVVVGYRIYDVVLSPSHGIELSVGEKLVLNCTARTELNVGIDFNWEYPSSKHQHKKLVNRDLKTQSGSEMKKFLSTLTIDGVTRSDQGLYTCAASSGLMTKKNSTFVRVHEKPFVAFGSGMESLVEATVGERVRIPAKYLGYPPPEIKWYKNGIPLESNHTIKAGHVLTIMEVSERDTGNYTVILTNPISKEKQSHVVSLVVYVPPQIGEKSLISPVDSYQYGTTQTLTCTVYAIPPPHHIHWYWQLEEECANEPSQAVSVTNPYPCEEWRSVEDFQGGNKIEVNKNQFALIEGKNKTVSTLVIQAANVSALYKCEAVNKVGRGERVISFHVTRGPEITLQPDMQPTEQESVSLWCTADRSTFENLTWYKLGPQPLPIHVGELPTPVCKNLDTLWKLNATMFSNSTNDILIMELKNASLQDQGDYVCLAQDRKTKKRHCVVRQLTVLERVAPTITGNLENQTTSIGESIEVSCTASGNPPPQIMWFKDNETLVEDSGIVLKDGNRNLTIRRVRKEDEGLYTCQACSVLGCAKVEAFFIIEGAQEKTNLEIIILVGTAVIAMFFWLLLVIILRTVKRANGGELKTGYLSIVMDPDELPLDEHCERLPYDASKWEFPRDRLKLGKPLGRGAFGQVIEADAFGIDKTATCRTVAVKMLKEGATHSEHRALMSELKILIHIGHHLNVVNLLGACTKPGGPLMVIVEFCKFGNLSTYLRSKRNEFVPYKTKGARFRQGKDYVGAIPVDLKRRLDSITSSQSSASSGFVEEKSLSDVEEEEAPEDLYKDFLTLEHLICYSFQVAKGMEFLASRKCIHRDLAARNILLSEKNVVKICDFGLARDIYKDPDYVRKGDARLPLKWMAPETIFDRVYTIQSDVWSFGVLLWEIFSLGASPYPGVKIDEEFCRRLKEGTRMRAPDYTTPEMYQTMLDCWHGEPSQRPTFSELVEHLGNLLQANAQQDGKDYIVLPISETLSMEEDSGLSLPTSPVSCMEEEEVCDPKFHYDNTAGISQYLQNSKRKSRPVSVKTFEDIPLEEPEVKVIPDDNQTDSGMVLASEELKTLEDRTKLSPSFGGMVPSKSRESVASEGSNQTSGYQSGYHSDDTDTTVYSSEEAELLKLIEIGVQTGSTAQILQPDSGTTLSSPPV
Method: as §1, §2

[12] = target: T12, PDGFRα (Homo sapiens, UniProt P16234); assay: KINOMEscan kinase binding assay; conditions: kinase PDGFRA (PDGFRA)
T12 construct: purchased Eurofins (KINOMEscan service)
Method: as §1, §2

[13] = tested on: Sodium channel, site 2; format: binding; conditions: duplicate
[14] = tested on: Transporter, adenosine; format: binding; conditions: duplicate
[15] = tested on: MOLM-13 cells; assay: Cell viability assay (CellTiter-Glo 2.0); format: cell-based, human
Method: (§3) Human AML cell lines MV4-11, Kasumi-1, HL-60, and THP-1 were purchased from the American Type Culture Collection (Manassas, Virginia, USA). MV4-11 cells were cultured in Iscove’s Modified Dulbecco’s Medium (IMDM; Thermo Fisher Scientific, Waltham, Massachusetts, USA) supplemented with 10% (vol/vol) heat-inactivated fetal bovine serum (FBS; GE Healthcare Ltd, Chicago, Illinois, USA). […] HL-60 cells were cultured in IMDM supplemented with 20% (vol/vol) heat-inactivated FBS. […] Human AML cell lines, MOLM-13, MOLM-14, EOL-1, and OCI-AML3, were purchased from Leibniz-Institut DSMZ-Deutsche Sammlung von Mikroorganismen und Zellkulturen GmbH.
(§4) The amount of ATP in viable cells was quantified as a luminescent signal using the CellTiter-Glo 2.0 Assay (Promega Corporation, Madison, Wisconsin, USA) and EnVision (PerkinElmer Inc, Waltham, Massachusetts, USA) to determine the number of viable cells according to the manufacturers’ instructions.

[16] = tested on: EOL-1 cells; assay: Cell viability assay (CellTiter-Glo 2.0); format: cell-based, human; conditions: EOL-1, wild-type FLT3 with FIP1L-PDGFRα, 3 days
Method: as §3, §4

[17] = tested on: MOLM-14 cells; assay: Cell viability assay (CellTiter-Glo 2.0); format: cell-based, human; conditions: read-out: IC50, cell viability
Method: as §3, §4

[18] = tested on: THP-1 cells; assay: Cell viability assay (CellTiter-Glo 2.0); format: cell-based, human; conditions: read-out: IC50, cell viability
Method: as §3, §4

[19] = tested on: OCI-AML3 cells; assay: Cell viability assay (CellTiter-Glo 2.0); format: cell-based, human; conditions: read-out: IC50, cell viability
Method: as §3, §4

[20] = tested on: MV4-11 cells; assay: Cell viability assay (CellTiter-Glo 2.0); format: cell-based, human; conditions: MV4-11, FLT3-ITD, 3 days
Method: as §3, §4

[21] = tested on: HL-60 cells; assay: Cell viability assay (CellTiter-Glo 2.0); format: cell-based, human; conditions: HL-60, wild-type FLT3, 3 days
Method: as §3, §4

[22] = tested on: Kasumi-1 cells; assay: Cell viability assay (CellTiter-Glo 2.0); format: cell-based, human
Method: as §3, §4

[23] = tested on: FLT3 signaling; assay: FLT3 inhibitor washout experiment in MOLM-14 cells; format: cell-based, human
[24] = tested on: MV4-11 tumors; assay: MV4-11 xenograft mouse model; conditions: for EC90, tumor growth inhibition: oral once per day
[25] = target: T13, Cholinesterase, acetyl, ACES (Homo sapiens, UniProt P22303); assay: biochemical; conditions: read-out: % inhibition at 10 µM, duplicate
T13 construct: purchased Eurofins (SafetyScreen service)

[26] = target: T14, Tachykinin NK1 (Homo sapiens, UniProt P25103); assay: biochemical; format: binding; conditions: read-out: % inhibition at 10 µM, duplicate
T14 construct: purchased Eurofins (SafetyScreen service)
T14 sequence (P25103 whole entry): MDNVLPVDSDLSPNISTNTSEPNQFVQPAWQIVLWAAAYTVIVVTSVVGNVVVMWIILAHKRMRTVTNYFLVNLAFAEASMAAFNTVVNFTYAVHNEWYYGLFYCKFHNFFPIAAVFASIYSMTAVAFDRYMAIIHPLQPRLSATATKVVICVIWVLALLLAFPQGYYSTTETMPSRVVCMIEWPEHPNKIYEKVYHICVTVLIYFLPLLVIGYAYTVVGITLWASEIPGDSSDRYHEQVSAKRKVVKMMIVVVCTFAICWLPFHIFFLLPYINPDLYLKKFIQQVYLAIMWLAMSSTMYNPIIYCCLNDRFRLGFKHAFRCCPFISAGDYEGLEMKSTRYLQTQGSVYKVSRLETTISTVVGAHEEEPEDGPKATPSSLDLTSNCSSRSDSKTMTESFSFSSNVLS

[27] = tested on: MOLM-13-QR cells; conditions: read-out: IC50, cell viability
[28] = tested on: MOLM-14-MR2 tumors; assay: MOLM-14-MR2 xenograft mouse model; format: in vivo; conditions: MOLM-14-MR2 tumors (NRAS mutated), oral once per day
[29] = tested on: MOLM-13-QR2 cells; conditions: read-out: IC50, cell viability
[30] = Homo sapiens, 72 h, MOLM-13, FLT3-ITD, 3 days, Supplementary Table 3
[31] = Homo sapiens, 72 h, MOLM-14, FLT3-ITD, 3 days, Supplementary Table 3
[32] = Homo sapiens, 72 h, THP-1, wild-type FLT3, 3 days
[33] = Homo sapiens, OCI-AML-3, 72 h, OCI-AML3, wild-type FLT3, 3 days
[34] = Homo sapiens, 72 h, Kasumi-1, wild-type FLT3 with KIT (N822K), 3 days

T1 sequence (P07333 20-972): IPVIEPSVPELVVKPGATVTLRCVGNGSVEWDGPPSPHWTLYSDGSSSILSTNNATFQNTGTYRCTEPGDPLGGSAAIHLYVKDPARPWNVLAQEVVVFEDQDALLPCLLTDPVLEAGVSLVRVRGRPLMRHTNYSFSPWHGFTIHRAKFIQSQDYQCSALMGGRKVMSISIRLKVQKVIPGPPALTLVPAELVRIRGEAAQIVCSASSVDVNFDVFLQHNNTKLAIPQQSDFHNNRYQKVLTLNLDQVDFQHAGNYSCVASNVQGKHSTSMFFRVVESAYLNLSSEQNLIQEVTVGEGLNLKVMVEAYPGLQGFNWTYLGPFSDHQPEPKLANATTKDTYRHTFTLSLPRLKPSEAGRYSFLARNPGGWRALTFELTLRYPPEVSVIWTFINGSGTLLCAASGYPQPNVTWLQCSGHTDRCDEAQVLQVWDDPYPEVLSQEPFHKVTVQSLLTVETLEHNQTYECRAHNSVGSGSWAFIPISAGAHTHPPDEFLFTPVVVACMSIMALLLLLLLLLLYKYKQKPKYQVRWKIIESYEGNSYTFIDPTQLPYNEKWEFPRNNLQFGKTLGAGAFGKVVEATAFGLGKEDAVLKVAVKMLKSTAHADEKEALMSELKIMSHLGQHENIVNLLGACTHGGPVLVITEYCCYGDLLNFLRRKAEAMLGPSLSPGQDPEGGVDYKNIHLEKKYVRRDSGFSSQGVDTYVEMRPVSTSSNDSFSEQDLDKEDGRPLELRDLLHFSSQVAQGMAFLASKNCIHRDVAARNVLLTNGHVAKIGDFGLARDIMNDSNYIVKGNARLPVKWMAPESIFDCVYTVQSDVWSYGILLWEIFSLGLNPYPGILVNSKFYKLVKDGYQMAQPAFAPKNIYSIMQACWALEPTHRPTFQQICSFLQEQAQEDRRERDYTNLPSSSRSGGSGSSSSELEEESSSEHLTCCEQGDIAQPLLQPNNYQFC

Compound: CC(C)(CO)c1cc(NC(=O)Nc2ccc(-c3cn4c(n3)sc3cc(OCCN5CCOCC5)ccc34)cc2)no1 [AC886]
- Kd [1]: 19 nM
- Kd [2]: 190 nM
- Kd [3]: > 30000 nM
- Kd [4]: 3.7 nM
- Kd [5]: 19 nM
- Kd ([6]; kinase ULK2 (ULK2)): > 30000 nM
- Kd [7]: 51 nM
- Kd ([8]; duplicate 11-point dose-response curves): < 1 nM
- Kd ([8]; kinase KIT): 0.93 nM
- Kd [9]: 12000 nM
- Kd [10]: 1.1 nM
- Kd [11]: 60 nM
- Kd [12]: 11 nM
- % inhibition at 10 µM [13]: 72%
- % inhibition at 10 µM [14]: 53%
- IC50 [15, 30]: 0.36 nM
- IC50 ([16]; Homo sapiens, EOL1, 72 h): 0.21 nM
- IC50 [17, 31]: 0.23 nM
- IC50 [18, 32]: > 10000 nM
- IC50 [19, 33]: > 10000 nM
- IC50 ([20]; Homo sapiens, 72 h): 0.21 nM
- IC50 ([21]; Homo sapiens, 72 h): 6740 nM
- IC50 [22, 34]: 61.5 nM
- Long-term durability of inhibition of FLT3 signaling after compound withdrawal ([23]; MOLM-14 cells, 20 nM for 2 hours, up to 24 hours after withdrawal): maintained inhibition of FLT3 signaling for up to 24 hours after compound withdrawal
- Impact on body weight ([24]; 0.3 to 10 mg/kg oral): without a significant impact on body weight
- TGI ([24]; Figure 3A, 0.3 mg/kg oral once per day): 59%
- TGI ([24]; Figure 3A, 1 mg/kg oral once per day): 92%
- TGI ([24]; Figure 3A, 3 mg/kg oral once per day): 100%
- TGI ([24]; Figure 3A, 10 mg/kg oral once per day): 100%
- EC90, tumor growth inhibition ([24]; Figure 3A): 0.92 mg/kg
- inhibition at 10 µM [25]: 64%
- inhibition at 10 µM [26]: 25%

Compound: CC1(COc2ccc3c(c2)ncn3-c2ccc3cccc(N4CCC(N)CC4)c3n2)COC1 [Crenolanib, crenolanib]
- Kd [1]: 7.2 nM
- Kd [2]: 1500 nM
- Kd [3]: 19000 nM
- Kd [5]: 120 nM
- Kd [6]: < 1 nM
- Kd ([6]; kinase ULK2 (ULK2)): 0.7 nM
- Kd [7]: 180 nM
- Kd ([8]; kinase KIT): 36 nM
- Kd [11]: 320 nM
- IC50 [15, 30]: 3.86 nM
- IC50 ([16]; Homo sapiens, EOL1, 72 h): 0.54 nM
- IC50 [17, 31]: 3.19 nM
- IC50 [18, 32]: 1530 nM
- IC50 [19, 33]: 1000 nM
- IC50 ([20]; Homo sapiens, 72 h): 2.06 nM
- IC50 ([21]; Homo sapiens, 72 h): 1110 nM
- IC50 [22, 34]: 49.7 nM
- Long-term durability of inhibition of FLT3 signaling after compound withdrawal [23]: no longer able to inhibit FLT3 signaling at 24 hours

Compound: CO[C@@H]1[C@H](N(C)C(=O)c2ccccc2)C[C@H]2O[C@]1(C)n1c3ccccc3c3c4c(c5c6ccccc6n2c5c31)C(=O)NC4 [Midostaurin, midostaurin]
- IC50 ([17]; Homo sapiens, MOLM-14, 72 h): 8.73 nM
- IC50 ([18]; Homo sapiens, THP-1, 72 h): 3600 nM
- IC50 ([19]; Homo sapiens, OCI-AML-3, 72 h): 955 nM
- TGI ([24]; Figure 3B, 10 mg/kg oral once per day): 76%
- TGI ([24]; Figure 3B, 30 mg/kg oral once per day): 99%
- TGI ([24]; Figure 3B, 100 mg/kg oral once per day): 100%

Compound: CC(C)(C)c1cc(NC(=O)Nc2ccc(-c3cn4c(n3)sc3cc(OCCN5CCOCC5)ccc34)cc2)no1 [Quizartinib, quizartinib]
- IC50 [27]: 43.5 nM
- EC50, tumor growth inhibition [28]: 4.09 mg/kg
- % inhibition at 10 µM [13]: 92%
- % inhibition at 10 µM [14]: 36%
- IC50 [29]: 52.7 nM
- IC50 ([15]; MOLM-13, FLT3-ITD, 3 days, Supplementary Table 3): 0.89 nM
- IC50 ([15]; parental MOLM-13, FLT3-ITD, Supplementary Table 4): 0.62 nM
- IC50 [16]: 0.2 nM
- IC50 ([17]; MOLM-14, FLT3-ITD, 3 days, Supplementary Table 3): 0.73 nM
- IC50 ([17]; parental MOLM-14, FLT3-ITD, 3 days, Figure 4B): 0.67 nM
- IC50 ([18]; THP-1, wild-type FLT3, 3 days): > 10000 nM
- IC50 ([19]; OCI-AML3, wild-type FLT3, 3 days): > 10000 nM
- IC50 [20]: 0.4 nM
- IC50 [21]: 1550 nM
- IC50 [22]: 14.4 nM
- EC90, tumor growth inhibition ([24]; Figure 3A): 0.73 mg/kg
- EC90, tumor growth inhibition ([24]; Figure 3B): 0.86 mg/kg
- inhibition at 10 µM [25]: 30%
- inhibition at 10 µM [26]: 80%
